pIC50: −log10 of the molar value. Calls of active or inactive are those of the source. The calls are words filed in the database; no cut-off is given here.
Legend:
[1] = system: Cerebral cortex neuron; test: Neuroprotective activity against glutamate-induced neuronal cell death in Sprague-Dawley rat primary cortical neuron at 0.25 uM pretreated for 24 hrs prior to glutamate challenge measured after 24 hrs by MTT assay; format: functional, cell-based
[2] = system: Cerebral cortex neuron; test: Neuroprotective activity against glutamate-induced neuronal cell death in Sprague-Dawley rat primary cortical neuron at 0.25 uM administered simultaneously with glutamate after 24 hrs by MTT assay; format: functional, cell-based
[3] = system: THP-1; test: Cytoprotective activity against LPS-induced cell death in human THP1 cells at 10 uM pretreated for 24 hrs prior to LPS challenge measured after 24 hrs by MTT assay; format: functional, cell-based
[4] = biological target: Prostaglandin G/H synthase 1 (Homo sapiens, UniProt P23219); test: Inhibition of COX1
[5] = biological target: T1, Prostaglandin G/H synthase 2 (Homo sapiens, UniProt P35354); test: Inhibition of COX2
T1 sequence (P35354 whole entry): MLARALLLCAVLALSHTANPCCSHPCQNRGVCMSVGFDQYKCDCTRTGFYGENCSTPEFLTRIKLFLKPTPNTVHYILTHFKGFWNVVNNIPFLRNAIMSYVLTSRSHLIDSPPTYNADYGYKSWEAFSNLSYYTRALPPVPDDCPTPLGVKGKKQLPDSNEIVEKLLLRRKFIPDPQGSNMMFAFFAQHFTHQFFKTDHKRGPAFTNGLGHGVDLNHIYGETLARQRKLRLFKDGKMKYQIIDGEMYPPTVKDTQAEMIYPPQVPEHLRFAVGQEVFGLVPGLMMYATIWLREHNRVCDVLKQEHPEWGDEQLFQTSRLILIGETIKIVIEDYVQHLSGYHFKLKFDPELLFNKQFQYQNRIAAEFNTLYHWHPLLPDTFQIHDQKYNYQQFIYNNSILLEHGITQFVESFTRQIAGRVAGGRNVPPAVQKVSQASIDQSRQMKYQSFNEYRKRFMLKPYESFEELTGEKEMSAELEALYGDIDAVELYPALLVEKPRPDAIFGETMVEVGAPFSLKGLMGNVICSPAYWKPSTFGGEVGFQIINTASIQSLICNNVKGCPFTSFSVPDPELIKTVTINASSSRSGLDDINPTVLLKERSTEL

[6] = biological target: T2, Polyunsaturated fatty acid 5-lipoxygenase (Homo sapiens, UniProt P09917); test: Inhibition of 5LOX
T2 sequence (P09917 whole entry): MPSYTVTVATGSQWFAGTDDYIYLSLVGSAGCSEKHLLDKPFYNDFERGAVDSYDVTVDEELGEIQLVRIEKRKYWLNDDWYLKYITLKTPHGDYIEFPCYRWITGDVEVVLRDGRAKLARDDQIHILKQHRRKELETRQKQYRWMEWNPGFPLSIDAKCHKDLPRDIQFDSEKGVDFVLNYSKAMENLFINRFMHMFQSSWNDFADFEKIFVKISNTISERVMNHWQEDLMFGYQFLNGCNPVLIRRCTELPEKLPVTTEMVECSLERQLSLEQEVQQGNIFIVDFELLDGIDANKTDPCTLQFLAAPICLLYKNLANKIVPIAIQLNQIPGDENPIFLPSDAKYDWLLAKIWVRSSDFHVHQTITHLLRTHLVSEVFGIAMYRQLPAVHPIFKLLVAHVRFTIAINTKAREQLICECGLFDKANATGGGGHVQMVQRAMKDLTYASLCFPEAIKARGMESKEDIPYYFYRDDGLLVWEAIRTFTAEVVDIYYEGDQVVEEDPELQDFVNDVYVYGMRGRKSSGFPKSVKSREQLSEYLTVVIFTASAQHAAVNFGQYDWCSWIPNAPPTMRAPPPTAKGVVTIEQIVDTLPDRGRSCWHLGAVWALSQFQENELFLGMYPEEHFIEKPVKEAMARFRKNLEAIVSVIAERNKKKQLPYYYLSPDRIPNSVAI

[7] = Radical scavenging activity assessed as suppression of MeO-AMVN-induced beta-carotene oxidation in benzene solution; format: physicochemical
[8] = Radical scavenging activity assessed as rate constant; format: physicochemical
[9] = Radical scavenging activity assessed as relative reactivity against beta-carotene in benzene solution; format: physicochemical
[10] = Radical scavenging activity assessed as relative reactivity against beta-carotene in 2,2-azobis[2-(2-imidazolin-2-yl)-propane]dihydrochloride solution; format: physicochemical
[11] = Radical scavenging activity assessed as relative reactivity against beta-carotene in MeO-AMVN solution; format: physicochemical
[12] = system: PC-12; test: Cytoprotective activity against 6-OHDA-induced cell death in rat PC12 cells at 25 uM pretreated for 24 hrs prior to 6-OHDA challenge measured after 24 hrs by MTT assay; format: functional, cell-based
[13] = system: PC-12; test: Cytoprotective activity against 6-OHDA-induced cell death in rat PC12 cells at 50 uM pretreated for 24 hrs prior to 6-OHDA challenge measured after 24 hrs by MTT assay; format: functional, cell-based
[14] = system: PC-12; test: Cytoprotective activity against 13(S)-HpODE-induced cell death in rat PC12 cells pretreated for 24 hrs prior to 13(S)-HpODE challenge measured after 24 hrs by MTT assay; format: functional, cell-based
[15] = system: PC-12; test: Cytoprotective activity against LPS-induced cell death in rat PC12 cells at 1 to 50 uM pretreated for 24 hrs prior to LPS challenge measured after 24 hrs by MTT assay; format: functional, cell-based
[16] = system: Cerebral cortex neuron; test: Neuroprotective activity against glutamate-induced neuronal cell death in Sprague-Dawley rat primary cortical neuron at 2.5 uM pretreated for 24 hrs prior to glutamate challenge measured after 24 hrs by MTT assay; format: functional, cell-based
[17] = system: Cerebral cortex neuron; test: Neuroprotective activity against glutamate-induced neuronal cell death in Sprague-Dawley rat primary cortical neuron at 1 uM pretreated for 24 hrs prior to glutamate challenge measured after 24 hrs by MTT assay; format: functional, cell-based
[18] = system: Cerebral cortex neuron; test: Neuroprotective activity against glutamate-induced neuronal cell death in Sprague-Dawley rat primary cortical neuron at 1 uM administered simultaneously with glutamate after 24 hrs by MTT assay; format: functional, cell-based

Prostaglandin G/H synthase 1, sequence (P23219 whole entry): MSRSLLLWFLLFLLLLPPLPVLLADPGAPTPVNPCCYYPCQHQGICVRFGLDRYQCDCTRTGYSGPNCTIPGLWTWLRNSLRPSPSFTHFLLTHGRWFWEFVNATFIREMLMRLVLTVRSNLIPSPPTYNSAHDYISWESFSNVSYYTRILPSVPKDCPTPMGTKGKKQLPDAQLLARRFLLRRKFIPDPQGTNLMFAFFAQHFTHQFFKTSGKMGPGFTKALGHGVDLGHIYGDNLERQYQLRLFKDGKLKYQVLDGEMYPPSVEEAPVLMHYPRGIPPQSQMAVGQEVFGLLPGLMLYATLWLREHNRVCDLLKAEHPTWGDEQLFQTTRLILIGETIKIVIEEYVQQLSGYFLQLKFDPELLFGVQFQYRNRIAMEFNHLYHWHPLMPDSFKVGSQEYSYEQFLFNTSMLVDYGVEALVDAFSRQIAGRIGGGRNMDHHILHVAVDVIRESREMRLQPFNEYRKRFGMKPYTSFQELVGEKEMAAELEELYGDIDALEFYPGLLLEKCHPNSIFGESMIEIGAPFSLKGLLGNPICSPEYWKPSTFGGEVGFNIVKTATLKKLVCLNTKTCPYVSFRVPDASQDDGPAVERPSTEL

Row | Compound | Activity [3] | pIC50 [4] | pIC50 [5] | pIC50 [6] | Activity [7] | K [8] | Activity [9] | Activity [10] | Activity [11] | Activity [14] | Activity [15] | also measured
1 | CC(C)=CCC/C(C)=C/CC/C(C)=C/CC[C@]1(C)CCc2c(C)c(O)c(C)c(C)c2O1 |  |  |  |  |  |  |  |  |  |  |  | Activity [1]: Active; Activity [2]: Active
2 | CCc1ccc(-c2ccc(O)c(OC)c2)o1 | Active | 4.89 | 5.03 | 6.28 | Dose-dependent effect | 2 ×10⁴ /M/s | 0.58 | 0.69 | 1.1 | Active | Active | Activity [12]: Active; Activity [13]: Active
3 | Cc1c(C)c2c(c(C)c1O)CC[C@@](C)(CCC[C@H](C)CCC[C@H](C)CCCC(C)C)O2 [ALPHA-TOCOPHEROL] |  |  |  |  |  | 1 ×10⁶ /M/s |  |  |  |  |  | Activity [16]: Active
4 | CCCCCCc1ccc(-c2ccc(O)c(OC)c2)o1 | Active | 4.21 | 5.08 | 5.59 | Dose-dependent effect | 3 ×10⁴ /M/s | 0.62 | 1 | 1.3 | Active | Active | Activity [17]: Active; Activity [18]: Active
5 | CCCCC[C@H](O)CC(=O)CCc1ccc(O)c(OC)c1 [GINGEROL] |  | 3.89 | 3.90 |  |  |  |  |  |  |  |  | 
6 | CCCCC/C=C/C(=O)CCc1ccc(O)c(OC)c1 [SHOGAOL] |  |  |  | 5.13 |  |  |  |  |  |  |  | 

From ChEMBL document CHEMBL1152306, “Characterization of novel furan compounds on the basis of their radical scavenging activity and cytoprotective effects against glutamate- and lipopolysaccharide-induced insults” (Bioorg Med Chem, 2008)
